Source: patent US20230123334A1, “AMINO LIPID COMPOUND, PREPARATION METHOD THEREFOR, AND APPLICATION THEREOF” (SHENZHEN SHENXIN BIOTECHNOLOGY CO., LTD., priority 2020, published 2023)

Columns and labels:
BALB/c mice [1] = assay: In vivo delivery of ovalbumin mRNA (OVA mRNA) and immunity, IgG antibody titer by ELISA; details: OVA mRNA LNPs 0.5 mg/kg Day 0 and Day 7, serum Day 21, versus DLin-MC3 control, FIG. 1
Experimental: The amino lipid compound of the invention was mixed with DOPE, cholesterol and PEG2000-DMG in a molar ratio of 50:10:38.5:1.5 and dissolved in absolute ethanol such that the molar concentration of the amino lipid compound was 0.001-0.01 mmol/L. Ovalbumin mRNA (OVA mRNA, TriLink) was dissolved in sodium acetate solution (50 mM, pH=4.0). By using a microinjection pump, the resultant ethanol solution and sodium acetate solution (50 mM, pH=4.0) were mixed in a volume ratio of 1:3 in a microchannel chip to prepare a crude solution of lipid nanoparticles, which was then dialyzed in 1×PBS at a controlled temperature of 4° C. for 6 h using a dialysis box (Fisher, MWCO 20,000), and filtered through a 0.22 μm microporous filter membrane before use. The mass ratio of the amino lipid compound to ovalbumin mRNA (OVA mRNA) was about 10:1.
(§1) Animal Preparation: 6-week aged female BALB/c mice weighed about 20 g were selected and fed in a SPF-grade feeding room. Animal tests were conducted strictly according to the guidelines of national health institutions and the requirements of animal ethics.
In vivo delivery: 3 mice were assigned randomly to each group, and the lipid nanoparticle solution was intramuscularly injected into the leg at a dosage of 0.5 mg/kg mRNA (Day 0). After 7 days, one booster injection was performed at the same dosage (Day 7). On Day 21, blood was taken from the tail vein for serological analysis. DLin-MC3 was used as control (FIG. 1).
Enzyme-linked immunosorbent assay (ELISA): a flat-bottomed 96-well plate (Nunc) was pre-coated, with a concentration of OVA protein of 0.5 μg protein per well in 50 mM carbonate buffer (pH 9.6), and was allowed to stay overnight at 4° C. and then blocked with 5% glycine. Serum obtained from animals receiving the lipid nanoparticle solution containing the mRNA was diluted from 10^2 to 10^6 times with PBS-0.05% Tween (PBS-T) at pH 7.4, and added to the wells, incubated at room temperature and placed at 37° C. for 1 h. Horseradish peroxidase (HRP, Invitrogen) coupled goat anti-mouse IgG was used for labeling in PBS-T-1% BSA at a dilution rate of 1:10,000. After addition of the HRP substrate, the absorbance at 450 nm was measured in ELISA microplate reader (Bio-Rad).

BALB/c mice [2] = assay: In vivo delivery of luciferase mRNA (Fluc mRNA) by lipid nanoparticles, in vivo imaging; details: 0.5 mg/kg Fluc mRNA, after 12 hours
Experimental: (§2) The amino lipid compound of the invention was mixed with DOPE, cholesterol and PEG2000-DMG in a molar ratio of 45:10:42.5:2.5, and dissolved in absolute ethanol such that the molar concentration of the amino lipid compound was 0.001-0.01 mmol/L. By using a microinjection pump, the resultant ethanol solution and a sodium acetate solution (50 mM, pH=4.0) in which luciferase mRNA (Fluc mRNA, TriLink) was dissolved were mixed in a volume ratio of 1:3 in a microchannel chip to prepare a crude solution of lipid nanoparticles, which was then dialyzed in 1×PBS at a controlled temperature of 4° C. for 6 h using a dialysis box (Fisher, MWCO 20,000) and filtered through a 0.22 μm microporous filter membrane before use. The mass ratio of the amino lipid compound to Fluc mRNA was about 10:1. The resultant solution of lipid nanoparticles (LNPs) was administered to the tested animals by subcutaneous administration.
(§3) The preparation method was the same as Formulation method 1, except that amino lipid compound, DSPC, cholesterol and PEG2000-DMG were used in a molar ratio of 50:10:38.5: 1.5. The resultant solution of lipid nanoparticles (LNPs) was administered to the tested animals by tail vein and intramuscular injection.
as §1
In vivo delivery: 9 mice were assigned randomly to each group, and the lipid nanoparticle solution was injected by three routes of administration, i.e., subcutaneous, intramuscular and tail vein injection at a dosage of 0.5 mg/kg Fluc mRNA (3 mice for each route of administration). After 12 hours, 200 μL of 10 mg/mL potassium salt of […] (PerkinElmer) was injected into each mouse through the tail vein. After 10 min, the mice were placed under an in vivo imaging system (IVIS-200, Xenogen) to observe the total fluorescence intensity of each mouse and take photographs for record. The expression intensity of Fluc mRNA delivered by representative amino lipid compounds through the three routes of administration are shown in Table 5-7. DLin-MC3 was used as control.

[3] = Particle size and PDI of lipid nanoparticles (Nano-ZSZEN3600, Malvern); assay type: physicochemical; details: LNPs; for Particle size (nm): Fluc mRNA
Experimental: as §2
Characterization of particle size: the particle size and PDI of the prepared lipid nanoparticles were determined by Nano-ZSZEN3600 (Malvern). 40 uL of LNP solution was taken for particle size measurement with circulation for three times, 30 s for each circulation.
as §3

[4] = Encapsulation rate of LNP RNA (Qubit RNA HS Assay kit); assay type: physicochemical; details: LNPs
Experimental: as §2
Detection of encapsulation rate: the concentration of LNP RNA was detected by Qubit® RNA HS Assay kit. The theoretical RNA concentration was given by the total amount of RNA input divided by the total volume of the final solution.
as §3

[5] = Formulation Method 1 (amino lipid:DOPE:cholesterol:PEG2000-DMG 45:10:42.5:2.5)
[6] = Formulation method 2 (amino lipid:DSPC:cholesterol:PEG2000-DMG 50:10:38.5:1.5)

Row | PDI ([3]; Formulation Method 1) | Particle size (nm) [3, 5] [nm] | PDI ([3]; Formulation method 2) | Particle size (nm) [3, 6] [nm] | Encapsulation rate ([4]; Formulation Method 1) [%] | Encapsulation rate ([4]; Formulation method 2) [%] | Structure (SMILES) | IgG antibody titer (BALB/c mice [1]) | Fluorescence intensity (expression intensity of Fluc mRNA) (BALB/c mice [2]; intramuscular administration) | Fluorescence intensity (expression intensity of Fluc mRNA) (BALB/c mice [2]; subcutaneous administration) | Fluorescence intensity (expression intensity of Fluc mRNA) (BALB/c mice [2]; tail vein administration)
1 | 0.02 | 88 ± 5 | 0.03 | 88 ± 5 | 99.6 | 99.2 | CCCCCCCC/C=C\CCCCCCCCSc1nc(OCCN2CCCC2)nc(SCCCCCCCCC)n1 [Compound S19S9O8] | significantly superior to that of the control | 9.1E+07 | 1.1E+07 | 1.1E+08
2 | 0.10 | 121 ± 5 | 0.04 | 95 ± 5 | 99.5 | 99.3 | CCCCCCCCCCCCCCCCCCSc1nc(NCCN2CCCC2)nc(SCCCCCCC)n1 [Compound S7S18D3] | significantly superior to that of the control | 8.7E+07 | 2.9E+08 | 8.1E+07
3 | 0.01 | 102 ± 5 | 0.05 | 92 ± 5 | 98.6 | 99.2 | CCCCCCCCCCCCCCCCSc1nc(NCCCCCCC)nc(NCCCN2CCN(C)CC2)n1 [Compound S16N7D9] | significantly superior to that of the control | 4.3E+07 | 1.4E+07 | 5.1E+07
4 | 0.04 | 110 ± 5 | 0.05 | 110 ± 5 | 99.2 | 99.0 | CCCCCCCC/C=C\CCCCCCCCSc1nc(OCC2CCN(C)CC2)nc(SCCCCCCCCC)n1 [Compound S19S9O9] | significantly superior to that of the control | 1.8E+07 | 2.8E+07 | 3.1E+07
